Source: EP0415126B1, “Anti-dental plaque agents” (MITSUI NORIN CO., LTD., priority 1989, dated 1991)

System: glucosyltransferase
Assay: Inhibition of water-insoluble glucan formation by crude glucosyltransferase (14C-sucrose, scintillation counting)
Assay type: biochemical, Streptococcus mutans OMZ 176
Conditions: Water-insoluble glucan formation vs control, 60 minutes at 37°C, pH 6.8
Protocol: Crude glucosyltransferase was refined from Streptococcus mutans OMZ 176 according to the method described by Mukasa and Slads in Infect. Immun., 8, 555 (1973) and 9, 419 (1974).
The above GTF, labeled sucrose and the tea polyphenol compounds were mixed together to the following final concentrations, and was regulated with a 50 mM phosphate buffer (with pH 6.8). GTF: 0.34 mg protein/ml 0.1 mM (¹⁴C) sucrose: 0.1 »Ci/»l Present agent: 1 to 10 mg/ml or 1 to 10 mM.
Twenty (20) »l of the mixture solution were subjected to a reaction for 60 minutes at 37°C. After the completion of the reaction, 5 »l of the reaction mixture and 5 »l of supernatant obtained by centrifugation of the reaction mixture at 5,500 x g for 3 minutes were applied to a filter paper respectively, and then developed with a developing solution of butanol-pyridine-water (6:4:3), followed by counting with a scintillation counter. The amount of water-insoluble glucan was found by a difference between the measurements of the reaction mixture and the supernatant. The GTF inhibiting ability is expressed in terms of the rate of inhibiting the formation of water-insoluble glucan with respect to a control to which the tea polyphenol compounds were not added.

Molecule	Inhibition (%) (sample concentration 1.0 mM)	Inhibition (%) (sample concentration 10.0 mM)
Oc1cc(O)c2c(c1)O[C@H](c1ccc(O)c(O)c1)[C@@H](O)C2 [(+)-Catechin]	22	62
Oc1cc(O)c2c(c1)O[C@@H](c1ccc(O)c(O)c1)[C@@H](O)C2 [(+)-Epicatechin]	12	42
Oc1cc(O)c2c(c1)O[C@H](c1cc(O)c(O)c(O)c1)[C@@H](O)C2 [(+)-Gallocatechin]	15	51
O=C(O[C@@H]1Cc2c(O)cc(O)cc2O[C@H]1c1cc(O)c(O)c(O)c1)c1cc(O)c(O)c(O)c1 [(-)-Gallocatechin gallate]	47	95
O=c1c(O)cc([C@H]2Oc3cc(O)cc(O)c3C[C@H]2O)cc2c([C@H]3Oc4cc(O)cc(O)c4C[C@H]3O)cc(O)c(O)c12 [Free theaflavin]	57	98
O=C(O[C@@H]1Cc2c(O)cc(O)cc2O[C@@H]1c1cc(O)c(=O)c2c(O)c(O)cc([C@H]3Oc4cc(O)cc(O)c4C[C@H]3OC(=O)c3cc(O)c(O)c(O)c3)c2c1)c1cc(O)c(O)c(O)c1 [Theaflavin digallate]	56	98
O=C(O[C@@H]1Cc2c(O)cc(O)cc2O[C@@H]1c1cc(=O)c(O)c2c(O)c(O)cc([C@H]3Oc4cc(O)cc(O)c4C[C@H]3O)c2c1)c1cc(O)c(O)c(O)c1 [Theaflavin monogallate A]	64	97
O=C(O[C@@H]1Cc2c(O)cc(O)cc2O[C@@H]1c1cc(O)c(O)c2c(=O)c(O)cc([C@H]3Oc4cc(O)cc(O)c4C[C@H]3O)cc12)c1cc(O)c(O)c(O)c1 [Theaflavin monogallate B]	47	98
(-)-Catechin	15	45
(-)-Epicatechin	5	42
(-)-Epicatechin gallate	35	83
(-)-Gallocatechin	20	30
